Data published in article PMC7099597 (ACS Central Science, 2020).

Legend:
[1] = test system: 4D5Flu Rip-3 (anti-fluorescein scFv); test: dose-dependent rescue of fluorescein quenching; type: binding, synthetic construct
[2] = test system: 8B10 scFv Rip-3 (anti-MPTS); test: MPTS fluorescence quenching, protein titration; type: binding

c1ccc(COc2ccc3cn[nH]c3c2)cc1 [Stitch-3, 6-(benzyloxy)indazole]
EC50 [1]: 16 µM

COc1cc(S(=O)(=O)O)c2ccc3c(S(=O)(=O)O)cc(S(=O)(=O)O)c4ccc1c2c43 [MPTS, 8-methoxypyrene-1,3,6-trisulfonic acid]
EC50 [2]: 1 µM
